Experimental data taken from patent US9284333B2, “Fused pyrroledicarboxamides and their use as pharmaceuticals” (SANOFI, priority 2012, dated 2016).

Biological target: Human TASK-1 channels (Homo sapiens (Human), UniProt O14649)
Experiment: Determination of the activity on the TASK-1 channel in Xenopus oocytes (two-microelectrode voltage clamp)
Assay type: cell-based
Details: for IC50: human TASK-1 expressed in Xenopus oocytes, room temperature, read-out: IC50 value for TASK-1 inhibition
Method in brief: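 Current during 500 ms pulses to 40 mV from a −90 mV hold was recorded in oocytes expressing human TASK-1 for two days after cRNA injection. Compounds were added cumulatively to the ND96 bath (pH 7.4, room temperature). IC50 came from dose-response fitting of inhibition relative to pre-compound current.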

Human TASK-1 channels, sequence (O14649 whole entry): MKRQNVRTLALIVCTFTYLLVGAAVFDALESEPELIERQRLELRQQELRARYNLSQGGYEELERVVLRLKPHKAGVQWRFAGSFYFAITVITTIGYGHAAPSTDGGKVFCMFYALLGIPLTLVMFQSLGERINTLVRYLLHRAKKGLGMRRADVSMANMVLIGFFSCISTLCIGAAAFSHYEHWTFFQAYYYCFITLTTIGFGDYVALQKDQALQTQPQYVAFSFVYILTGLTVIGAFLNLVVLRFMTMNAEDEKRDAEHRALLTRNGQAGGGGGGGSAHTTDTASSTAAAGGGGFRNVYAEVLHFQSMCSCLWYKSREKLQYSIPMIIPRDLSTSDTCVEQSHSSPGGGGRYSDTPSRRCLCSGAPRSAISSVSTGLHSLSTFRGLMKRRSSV

CC[C@@H](NC(=O)c1cc(C(=O)N2CCC[C@@H]2c2ccc(C(F)(F)F)nc2)n2c1COCC2)c1ccccc1 [16ga, 6-[(R)-2-(6-Trifluoromethyl-pyridin-3-yl)-pyrrolidine-1-carbonyl]-3,4-dihydro-1H-pyrrolo[2,1-c][1,4]oxazine-8-carboxylic acid ((R)-1-phenyl-propyl)-amide]
inhibition at 5 µM (compound concentration 5 μM): 67%

CC[C@@H](NC(=O)c1cc(C(=O)N2CCCC2C2CC2)n2c1COCC2)c1ccccc1 (stereo partly drawn) [16gb, 6-(2-Cyclopropyl-pyrrolidine-1-carbonyl)-3,4-dihydro-1H-pyrrolo[2,1-c][1,4]oxazine-8-carboxylic acid ((R)-1-phenyl-propyl)-amide]
IC50: 0.45 µM

CC[C@@H](NC(=O)c1cc(C(=O)NCC2CC2)n2c1COCC2)c1ccccc1 [16gc, 3,4-Dihydro-1H-pyrrolo[2,1-c][1,4]oxazine-6,8-dicarboxylic acid 6-cyclopropylmethyl-amide 8-[((R)-1-phenyl-propyl)-amide]]
IC50: 0.1 µM

CC[C@@H](NC(=O)c1cc(C(=O)N(C)CC2CCOCC2)n2c1COCC2)c1ccccc1 [16gd, 3,4-Dihydro-1H-pyrrolo[2,1-c][1,4]oxazine-6,8-dicarboxylic acid 6-[methyl-(tetrahydro-pyran-4-ylmethyl)-amide] 8-[((R)-1-phenyl-propyl)-amide]]
IC50: 5.4 µM

CC[C@@H](NC(=O)c1cc(C(=O)NC(C)C)n2c1COCC2)c1ccccc1 [16ge, 3,4-Dihydro-1H-pyrrolo[2,1-c][1,4]oxazine-6,8-dicarboxylic acid 6-isopropylamide 8-[((R)-1-phenyl-propyl)-amide]]
IC50: 0.69 µM

CC[C@@H](NC(=O)c1cc(C(=O)NCC(C)C)n2c1COCC2)c1ccccc1 [16gf, 3,4-Dihydro-1H-pyrrolo[2,1-c][1,4]oxazine-6,8-dicarboxylic acid 6-isobutylamide 8-[((R)-1-phenyl-propyl)-amide]]
IC50: 0.34 µM

CC[C@@H](NC(=O)c1cc(C(=O)NC(C)COC)n2c1COCC2)c1ccccc1 (stereo partly drawn) [16gg, 3,4-Dihydro-1H-pyrrolo[2,1-c][1,4]oxazine-6,8-dicarboxylic acid 6-[(2-methoxy-1-methyl-ethyl)-amide] 8-[((R)-1-phenyl-propyl)-amide]]
IC50: 0.23 µM

CC[C@@H](NC(=O)c1cc(C(=O)NCCOC)n2c1COCC2)c1ccccc1 [16gh, 3,4-Dihydro-1H-pyrrolo[2,1-c][1,4]oxazine-6,8-dicarboxylic acid 6-[(2-methoxy-ethyl)-amide] 8-[((R)-1-phenyl-propyl)-amide]]
IC50: 2.2 µM

CC[C@@H](NC(=O)c1cc(C(=O)NC2CC2)n2c1COCC2)c1ccccc1 [16gi, 3,4-Dihydro-1H-pyrrolo[2,1-c][1,4]oxazine-6,8-dicarboxylic acid 6-cyclopropylamide 8-[((R)-1-phenyl-propyl)-amide]]
IC50: 1.3 µM

CC[C@@H](NC(=O)c1cc(C(=O)N[C@H]2CCc3ccccc32)n2c1COCC2)c1ccccc1 [16gj, 3,4-Dihydro-1H-pyrrolo[2,1-c][1,4]oxazine-6,8-dicarboxylic acid 6-(S)-indan-1-ylamide 8-[((R)-1-phenyl-propyl)-amide]]
IC50: 0.048 µM

CC[C@@H](NC(=O)c1cc(C(=O)NCCC2CC2)n2c1COCC2)c1ccccc1 [16gk, 3,4-Dihydro-1H-pyrrolo[2,1-c][1,4]oxazine-6,8-dicarboxylic acid 6-[(2-cyclopropyl-ethyl)-amide] 8-[((R)-1-phenyl-propyl)-amide]]
IC50: 0.036 µM

CC[C@@H](NC(=O)c1cc(C(=O)N[C@H](C)c2ccc(F)cc2)n2c1COCC2)c1ccccc1 [16gl, 3,4-Dihydro-1H-pyrrolo[2,1-c][1,4]oxazine-6,8-dicarboxylic acid 6-{[(R)-1-(4-fluoro-phenyl)-ethyl]-amide} 8-[((R)-1-phenyl-propyl)-amide]]
IC50: 0.042 µM

CC[C@@H](NC(=O)c1cc(C(=O)NCCc2ccccn2)n2c1COCC2)c1ccccc1 [16gm, 3,4-Dihydro-1H-pyrrolo[2,1-c][1,4]oxazine-6,8-dicarboxylic acid 8-[((R)-1-phenyl-propyl)-amide] 6-[(2-pyridin-2-yl-ethyl)-amide]]
IC50: 0.49 µM
